Results from US20160367505A1, “PROTOTYPICAL ANALGESIC PROFILE OF N-STEARYL DOPAMINE (NS-DA)” (priority 2015, published 2016).

Assays:
[1] = test system: Paclitaxel induced pain sensitization in the formalin test of pain; experiment: Paclitaxel induced neuropathic sensitization (PINS) in the formalin test of pain; format: in vivo, mice; details: for PINS diminished: per os in Tween-80 (5%) suspension, vs Tween-80 (5%) controls
Excerpt: NS-DA was synthesized and studied pharmacologically in the early ninety's.

brain dopamine turnover = details: mice and rats; studies of the early ninety's; cited from earlier work
locomotion = details: mice and rats; studies of the early ninety's; cited from earlier work

Structure (SMILES) | analgesic effect (decrease) ([1]; 0-5 mn acute pain phase, females) [%] | analgesic effect ([1]; 0-5 mn acute pain phase, male mice) | suppression of PINS ([1]; 40 mg/kg ip in Cremophor.EL, 35-40 mn central sensitization phase, 1 hour after administration, vs Cremophor.EL control) [%] | analgesic effect (decrease) ([1]; 35-40 mn sensitization phase, males and females) | analgesic effect (decrease) ([1]; 55-60 mn sensitization phase, female mice) [%] | analgesic effect (decrease) ([1]; 55-60 mn sensitization phase, males) [%] | effect on PINS ([1]; NS-DA 10 mg/kg ip alone, 35-40 mn central sensitization phase) | analgesic activity against PINS ([1]; formalin test, mice, general statement) | PINS diminished ([1]; 1 hour after administration) [%] | PINS diminished ([1]; 2 hours after administration) [%] | PINS diminished ([1]; 4 hours after administration) [%] | effect on brain dopamine turnover (brain dopamine turnover) | effect on locomotion (locomotion) | decrease of PINS ([1]; morphine 3 mg/kg sc alone, 35-40 mn central sensitization phase) [%]
CCCCCCCCCCCCCCCCCC(=O)NCCc1ccc(O)c(O)c1 [NS-DA] | 65 | not significant | 94.8 | about 95% | 95 | 58 | inactive | high analgesic activity | 39 | 62 | 76 | decrease of the brain dopamine turnover | hypomotility | 
CN1CC[C@]23c4c5ccc(O)c4O[C@H]2[C@@H](O)C=C[C@H]3[C@H]1C5 [morphine, reference compound] |  |  |  |  |  |  |  |  |  |  |  |  |  | 37
